Experimental data reported in US7582610B2, “Melanocortin receptor templates, peptides and use thereof” (priority 2003, dated 2009).
Where a SMILES comes first, the peptide text is derived from it. Bridges are numbered along the chain shown (N, C = ends). [ ]: non-standard residue; d: D form. Nle = CCCC[C@H](N)C(=O)O; Dap = NC[C@H](N)C(=O)O

Experiments:
[1] = molecular target: mMC3R (Mus musculus, UniProt P33033); experiment: Functional bioassay, CRE/β-galactosidase reporter in HEK-293 cells stably expressing mMC3R; conditions: for pharmacology in words at mMC3R: slight agonist = some stimulatory response at 100 μM, not enough to determine an EC50
mMC3R, sequence (P33033 whole entry): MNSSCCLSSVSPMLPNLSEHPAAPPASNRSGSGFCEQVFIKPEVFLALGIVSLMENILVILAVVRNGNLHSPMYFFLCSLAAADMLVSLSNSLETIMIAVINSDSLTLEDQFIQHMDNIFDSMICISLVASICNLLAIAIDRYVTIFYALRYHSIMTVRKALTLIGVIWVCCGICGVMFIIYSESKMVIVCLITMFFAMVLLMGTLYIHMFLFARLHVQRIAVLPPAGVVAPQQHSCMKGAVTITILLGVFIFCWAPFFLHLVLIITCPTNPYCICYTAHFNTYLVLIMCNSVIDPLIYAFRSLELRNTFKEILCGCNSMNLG
Protocol: (§1) 5,000 to 15,000 post transfection cells were plated into 96 well Primera plates (Falcon) and incubated overnight. […] The assay media was aspirated and 50 μL of lysis buffer (250 mM Tris-HCl pH=8.0 and 0.1% Triton X-100) was added. The plates were stored at −80° overnight.
(§2) The plates containing the cell lysates were thawed the following day. Aliquots of 10 μL were taken from each well and transferred to another 96-well plate for relative protein determination. To the cell lysate plates, 40 μL phosphate-buffered saline with 0.5% BSA was added to each well. Subsequently, 150 μL substrate buffer (60 mM sodium phosphate, 1 mM MgCl2, 10 mM KCl, 5 mM β-mercaptoethanol, 200 mg/100 mL ONPG) was added to each well and the plates were incubated at 37°.
(§3) The sample absorbance, OD405, was measured using a 96 well plate reader (Molecular Devices). The relative protein was determined by adding 200 μL 1:5 dilution Bio Rad G250 protein dye:water to the 10 μL cell lysate sample taken previously, and the OD595 was measured on a 96 well plate reader (Molecular Devices). Data points were normalized both to the relative protein content and non-receptor dependent forskolin stimulation.
(§4) For data analysis, EC50 and pA2 values represent the mean of duplicate experiments performed in triplet, quadruplet or more independent experiments.

[2] = molecular target: mMC4R (Mus musculus, UniProt P56450); experiment: Functional bioassay, CRE/β-galactosidase reporter in HEK-293 cells stably expressing mMC4R; conditions: for pharmacology in words at mMC4R: slight agonist = some stimulatory response at 100 μM, not enough to determine an EC50
mMC4R, sequence (P56450 whole entry): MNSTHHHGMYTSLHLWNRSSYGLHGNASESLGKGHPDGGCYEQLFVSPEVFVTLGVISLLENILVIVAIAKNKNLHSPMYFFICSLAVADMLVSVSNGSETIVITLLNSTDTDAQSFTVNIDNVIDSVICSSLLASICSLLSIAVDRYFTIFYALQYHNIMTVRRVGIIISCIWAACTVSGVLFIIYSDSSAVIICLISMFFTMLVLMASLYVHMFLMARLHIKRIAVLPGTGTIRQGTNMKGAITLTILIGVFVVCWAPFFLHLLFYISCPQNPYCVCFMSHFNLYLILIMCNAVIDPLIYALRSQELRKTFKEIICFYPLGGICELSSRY
Protocol: as §1, §2, §3, §4

[3] = molecular target: mMC1R (Mus musculus, UniProt Q01727); experiment: Functional bioassay, CRE/β-galactosidase reporter in HEK-293 cells stably expressing mMC1R
mMC1R, sequence (Q01727 whole entry): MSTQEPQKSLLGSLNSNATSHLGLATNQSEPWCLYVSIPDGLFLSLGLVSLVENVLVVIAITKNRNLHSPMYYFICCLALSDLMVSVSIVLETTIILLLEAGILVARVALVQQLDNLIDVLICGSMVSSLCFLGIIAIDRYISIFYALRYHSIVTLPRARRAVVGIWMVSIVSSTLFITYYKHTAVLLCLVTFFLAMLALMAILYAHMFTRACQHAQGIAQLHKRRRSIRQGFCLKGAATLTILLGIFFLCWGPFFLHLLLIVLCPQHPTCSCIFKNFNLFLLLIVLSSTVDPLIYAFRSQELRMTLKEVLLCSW
Protocol: as §1, §2, §3, §4

[4] = molecular target: mMC5R (Mus musculus, UniProt P41149); experiment: Functional bioassay, CRE/β-galactosidase reporter in HEK-293 cells stably expressing mMC5R; conditions: for pharmacology in words at mMC5R: slight agonist = some stimulatory response at 100 μM, not enough to determine an EC50
mMC5R, sequence (P41149 whole entry): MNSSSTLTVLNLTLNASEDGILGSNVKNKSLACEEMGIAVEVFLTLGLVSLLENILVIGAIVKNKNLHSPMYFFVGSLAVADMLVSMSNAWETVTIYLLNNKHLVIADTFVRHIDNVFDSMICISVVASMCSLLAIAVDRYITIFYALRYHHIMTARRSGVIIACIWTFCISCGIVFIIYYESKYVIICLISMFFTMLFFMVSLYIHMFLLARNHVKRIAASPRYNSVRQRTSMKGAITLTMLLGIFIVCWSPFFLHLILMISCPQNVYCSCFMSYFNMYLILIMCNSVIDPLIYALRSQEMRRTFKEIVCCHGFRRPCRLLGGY
Protocol: as §1, §2, §3, §4

C[C@@H]1NC(=O)[C@H](CC(N)=O)NC(=O)[C@@H](Cc2ccccc2)NC(=O)[C@H](Cc2ccccc2)NC(=O)[C@H](CCCNC(=N)N)NC(=O)[C@@H](NC(=O)[C@@H](N)Cc2ccc(O)cc2)CSSC[C@@H](C(=O)N[C@@H](Cc2ccc(O)cc2)C(N)=O)NC(=O)[C@H](Cc2ccccc2)NC1=O [SEQ ID NO: 1, Tyr-c[Cys-Arg-Phe-DPhe-Asn-Ala-Phe-Cys]-Tyr] (H-YCRF[dF]NAFCY-NH2; disulfide 2-9)
EC50 [1]: > 100000 nM | pharmacology in words at mMC3R [1]: Slight Agonist | Kb [2]: 794 nM | pharmacology in words at mMC4R [2]: Partial agonist

C[C@@H]1NC(=O)[C@H](C)NC(=O)[C@@H](NC(=O)[C@@H](N)Cc2ccc(O)cc2)CC(=O)NC[C@@H](C(=O)N[C@@H](Cc2ccc(O)cc2)C(N)=O)NC(=O)[C@H](Cc2ccccc2)NC(=O)[C@H](C)NC(=O)[C@H](CC(N)=O)NC(=O)[C@H](C)NC1=O [SEQ ID NO: 2, Tyr-c[Asp-Ala-Ala-Ala-Asn-Ala-Phe-Dpr]-Tyr] (H-YDAAANAF[Dap]Y-NH2; lactam 2-9)
EC50 [3]: > 100000 nM | EC50 [4]: > 100000 nM | EC50 [1]: > 100000 nM | EC50 [2]: > 100000 nM

C[C@@H]1NC(=O)[C@H](CC(N)=O)NC(=O)[C@H](Cc2ccccc2)NC(=O)[C@H](Cc2ccccc2)NC(=O)[C@H](CCCNC(=N)N)NC(=O)[C@@H](NC(=O)[C@@H](N)Cc2ccc(O)cc2)CC(=O)NC[C@@H](C(=O)N[C@@H](Cc2ccc(O)cc2)C(N)=O)NC(=O)[C@H](Cc2ccccc2)NC1=O [SEQ ID NO: 3, Tyr-c[Asp-Arg-Phe-Phe-Asn-Ala-Phe-Dpr]-Tyr]
EC50 [4]: > 100000 nM | Kb [1]: 2000 nM | Kb [2]: 1260 nM | decrease in antagonist potency at mMC4R ([2]; compared with hAGRP(109-118)): 8 fold

C[C@@H]1NC(=O)[C@H](CC(N)=O)NC(=O)[C@H](Cc2ccccc2)NC(=O)[C@H](CCCNC(=N)N)NC(=O)[C@H](Cc2c[nH]c3ccccc23)NC(=O)[C@@H](NC(=O)[C@@H](N)Cc2ccc(O)cc2)CC(=O)NC[C@@H](C(=O)N[C@@H](Cc2ccc(O)cc2)C(N)=O)NC(=O)[C@H](Cc2ccccc2)NC1=O [SEQ ID NO: 4, Tyr-c[Asp-Trp-Arg-Phe-Asn-AIa-Phe-Dpr]-Tyr] (H-YDWRFNAF[Dap]Y-NH2; lactam 2-9)
EC50 [4]: > 100000 nM | EC50 [1]: > 100000 nM | pharmacology in words at mMC4R [2]: Partial agonist

C[C@@H]1NC(=O)[C@H](CC(N)=O)NC(=O)[C@@H](Cc2ccccc2)NC(=O)[C@H](CCCNC(=N)N)NC(=O)[C@H](Cc2c[nH]c3ccccc23)NC(=O)[C@@H](NC(=O)[C@@H](N)Cc2ccc(O)cc2)CC(=O)NC[C@@H](C(=O)N[C@@H](Cc2ccc(O)cc2)C(N)=O)NC(=O)[C@H](Cc2ccccc2)NC1=O [SEQ ID NO: 5, Tyr-c[Asp-Trp-Arg-DPhe-Asn-Ala-Phe-Dpr]-Tyr] (H-YDWR[dF]NAF[Dap]Y-NH2; lactam 2-9)
pharmacology in words at mMC3R [1]: Slight Agonist

C[C@@H]1NC(=O)[C@H](CC(N)=O)NC(=O)[C@H](Cc2c[nH]c3ccccc23)NC(=O)[C@H](CCCNC(=N)N)NC(=O)[C@H](Cc2ccccc2)NC(=O)[C@@H](NC(=O)[C@@H](N)Cc2ccc(O)cc2)CC(=O)NC[C@@H](C(=O)N[C@@H](Cc2ccc(O)cc2)C(N)=O)NC(=O)[C@H](Cc2ccccc2)NC1=O [SEQ ID NO: 6, Tyr-c[Asp-Phe-Arg-Trp-Asn-Ala-Phe-Dpr]-Tyr] (H-YDFRWNAF[Dap]Y-NH2; lactam 2-9)
pharmacology in words at mMC3R [1]: Slight agonist

CCCC[C@H](NC(=O)[C@H](CO)NC(=O)[C@H](Cc1ccc(O)cc1)NC(=O)[C@H](CO)NC(C)=O)C(=O)N[C@@H](Cc1ccc(O)cc1)C(=O)N[C@H]1CC(=O)NC[C@@H](C(=O)N[C@@H](Cc2ccc(O)cc2)C(=O)N[C@@H](CCCCN)C(=O)N2CCC[C@H]2C(=O)N[C@H](C(N)=O)C(C)C)NC(=O)[C@H](Cc2ccccc2)NC(=O)[C@H](C)NC(=O)[C@H](CC(N)=O)NC(=O)[C@H](Cc2ccccc2)NC(=O)[C@H](Cc2ccccc2)NC(=O)[C@H](CCCNC(=N)N)NC1=O [SEQ ID NO: 11, Ac-Ser-Tyr-Ser-Nle-Tyr-c[Asp-Arg-Phe-Phe-Asn-Ala-Phe-Dpr]-Tyr-Lys-Pro-Val] (Ac-SYS[Nle]YDRFFNAF[Dap]YKPV-NH2; lactam 6-13)
EC50 [4]: > 100000 nM | Kb [1]: 631 nM | Kb [2]: 631 nM

CCCC[C@H](NC(=O)[C@H](CO)NC(=O)[C@H](Cc1ccc(O)cc1)NC(=O)[C@H](CO)NC(C)=O)C(=O)N[C@@H](CCC(=O)O)C(=O)N[C@@H](Cc1ccccc1)C(=O)N[C@@H](Cc1ccccc1)C(=O)N[C@@H](CCCNC(=N)N)C(=O)NCC(=O)N[C@@H](CCCCN)C(=O)N1CCC[C@H]1C(=O)N[C@H](C(N)=O)C(C)C [SEQ ID NO: 13] (Ac-SYS[Nle]EFFRGKPV-NH2)
pharmacology in words at mMC1R ([3]; slight agonist = some stimulatory response at 100 μM, not enough to determine an EC50): Partial agonist | EC50 [4]: > 100000 nM | EC50 [1]: > 100000 nM | EC50 [2]: > 100000 nM

CCCC[C@H](NC(=O)[C@H](CO)NC(=O)[C@H](Cc1ccc(O)cc1)NC(=O)[C@H](CO)NC(C)=O)C(=O)N[C@@H](CCC(=O)O)C(=O)N[C@@H](Cc1c[nH]cn1)C(=O)N[C@@H](CCCNC(=N)N)C(=O)N[C@@H](Cc1ccccc1)C(=O)N[C@H](Cc1ccccc1)C(=O)NCC(=O)N[C@@H](CCCCN)C(=O)N1CCC[C@H]1C(=O)N[C@H](C(N)=O)C(C)C [SEQ ID NO: 18, Ac-Ser-Tyr-Ser-Nle-Glu-His-Arg-Phe-DPhe-Gly-Lys-Pro-Val] (Ac-SYS[Nle]EHRF[dF]GKPV-NH2)
pharmacology in words at mMC5R [4]: Slight agonist | EC50 [1]: > 100000 nM | EC50 [2]: > 100000 nM

CCCC[C@H](NC(C)=O)C(=O)N[C@H]1CC(=O)NCCCC[C@@H](C(N)=O)NC(=O)[C@@H](Cc2ccccc2)NC(=O)[C@H](Cc2ccccc2)NC(=O)[C@H](CCCNC(=N)N)NC(=O)[C@H](Cc2c[nH]cn2)NC1=O [SEQ ID NO: 23, Ac-Nle-c[Asp-His-Arg-Phe-DPhe-Lys]] (Ac-[Nle]DHRF[dF]K-NH2; lactam 2-7)
pharmacology in words at mMC5R [4]: Slight agonist | pharmacology in words at mMC3R [1]: Slight agonist | EC50 [2]: > 100000 nM

C[C@@H]1NC(=O)[C@H](CC(N)=O)NC(=O)[C@H](Cc2c[nH]c3ccccc23)NC(=O)[C@H](CCCNC(=N)N)NC(=O)[C@H](C)NC(=O)[C@H](Cc2c[nH]cn2)NC(=O)[C@@H](NC(=O)[C@@H](N)Cc2ccc(O)cc2)CC(=O)NC[C@@H](C(=O)N[C@@H](Cc2ccc(O)cc2)C(N)=O)NC(=O)[C@H](Cc2ccccc2)NC1=O [SEQ ID NO: 25]
pharmacology in words at mMC3R [1]: Partial agonist

C[C@@H]1NC(=O)[C@H](CC(N)=O)NC(=O)[C@H](Cc2c[nH]c3ccccc23)NC(=O)[C@H](CCCNC(=N)N)NC(=O)[C@@H](Cc2ccccc2)NC(=O)[C@@H]2CCCN2C(=O)[C@@H](NC(=O)[C@@H](N)Cc2ccc(O)cc2)CC(=O)NC[C@@H](C(=O)N[C@@H](Cc2ccc(O)cc2)C(N)=O)NC(=O)[C@H](Cc2ccccc2)NC1=O [SEQ ID NO: 28, Tyr-c[Asp-Pro-DPhe-Arg-Trp-Asn-Ala-Phe-Dpr]-Tyr] (H-YDP[dF]RWNAF[Dap]Y-NH2; lactam 2-10)
Kb [1]: 63.1 nM | pharmacology in words at mMC3R [1]: Partial agonist

C[C@@H]1NC(=O)[C@H](CC(N)=O)NC(=O)[C@H](Cc2c[nH]c3ccccc23)NC(=O)[C@H](CCCNC(=N)N)NC(=O)[C@@H](Cc2ccccc2)NC(=O)[C@H](Cc2ccccc2)NC(=O)[C@@H](NC(=O)[C@@H](N)Cc2ccc(O)cc2)CC(=O)NC[C@@H](C(=O)N[C@@H](Cc2ccc(O)cc2)C(N)=O)NC(=O)[C@H](Cc2ccccc2)NC1=O [SEQ ID NO: 29, Tyr-c[Asp-Phe-DPhe-Arg-Trp-Asn-Ala-Phe-Dpr]-Tyr] (H-YDF[dF]RWNAF[Dap]Y-NH2; lactam 2-10)
Kb [1]: 63.1 nM | pharmacology in words at mMC3R [1]: Partial agonist

C[C@@H]1NC(=O)[C@H](CC(N)=O)NC(=O)[C@H](Cc2c[nH]c3ccccc23)NC(=O)[C@H](CCCNC(=N)N)NC(=O)[C@@H](Cc2ccc(I)cc2)NC(=O)[C@H](Cc2c[nH]cn2)NC(=O)[C@@H](NC(=O)[C@@H](N)Cc2ccc(O)cc2)CC(=O)NC[C@@H](C(=O)N[C@@H](Cc2ccc(O)cc2)C(N)=O)NC(=O)[C@H](Cc2ccccc2)NC1=O [SEQ ID NO: 32, Tyr-c[Asp-His-(pI)DPhe-Arg-Trp-Asn-Ala-Phe-Dpr]-Tyr]
Kb [1]: 1.26 nM | Kb [2]: 0.398 nM | pharmacology in words at mMC4R [2]: Partial agonist

C[C@@H]1NC(=O)[C@H](CC(N)=O)NC(=O)[C@H](Cc2c[nH]c3ccccc23)NC(=O)[C@H](CCCNC(=N)N)NC(=O)[C@@H](Cc2ccc3ccccc3c2)NC(=O)[C@H](Cc2c[nH]cn2)NC(=O)[C@@H](NC(=O)[C@@H](N)Cc2ccc(O)cc2)CC(=O)NC[C@@H](C(=O)N[C@@H](Cc2ccc(O)cc2)C(N)=O)NC(=O)[C@H](Cc2ccccc2)NC1=O [SEQ ID NO: 33, Tyr-c[Asp-His-DNal(2′)-Arg-Trp-Asn-Ala-Phe-Dpr]-Tyr]
Kb [1]: 5.01 nM | Kb [2]: 0.501 nM | pharmacology in words at mMC4R [2]: Partial agonist

C[C@@H]1NC(=O)[C@H](CC(N)=O)NC(=O)[C@H](Cc2c[nH]c3ccccc23)NC(=O)[C@H](CCCNC(=N)N)NC(=O)[C@@H](Cc2cccc3ccccc23)NC(=O)[C@H](Cc2c[nH]cn2)NC(=O)[C@@H](NC(=O)[C@@H](N)Cc2ccc(O)cc2)CC(=O)NC[C@@H](C(=O)N[C@@H](Cc2ccc(O)cc2)C(N)=O)NC(=O)[C@H](Cc2ccccc2)NC1=O [SEQ ID NO: 34, Tyr-c[Asp-His-DNal(1′)-Arg-Trp-Asn-Ala-Phe-Dpr]-Tyr]
EC50 [2]: 0.57 ± 0.08 nM

C[C@@H]1NC(=O)[C@H](CC(N)=O)NC(=O)[C@H](Cc2c[nH]c3ccccc23)NC(=O)[C@H](CCCNC(=N)N)NC(=O)[C@@H](Cc2ccc(-c3ccccc3)cc2)NC(=O)[C@H](Cc2c[nH]cn2)NC(=O)[C@@H](NC(=O)[C@@H](N)Cc2ccc(O)cc2)CC(=O)NC[C@@H](C(=O)N[C@@H](Cc2ccc(O)cc2)C(N)=O)NC(=O)[C@H](Cc2ccccc2)NC1=O [SEQ ID NO: 35, Tyr-c[Asp-His-DBip-Arg-Trp-Asn-Ala-Phe-Dpr]-Tyr]
EC50 [2]: 0.57 ± 0.07 nM
